Experimental data taken from patent US20240218023A1, “CYCLIC PEPTIDE-N-ACETYLGALACTOSAMINE (GALNAC) CONJUGATES FOR DRUG DELIVERY TO LIVER CELLS” (MICROBIO (SHANGHAI) CO., LTD., priority 2021, published 2024).

Tested on: HepG2 cells
Test: Cellular uptake / binding of FAM-labeled ligands to HepG2 cells (flow cytometry, proportion of FAM positive cells)
Format: cell-based, human
Conditions: 24 h, HepG2
Procedure: The human hepatocellular carcinoma (HepG2) cell line was purchased from Shanghai Zhong Qiao Xin Zhou Biotechnology Co., Ltd. and maintained in minimum essential medium (Gibco, ThermoFisher Scientific, USA) with 10% fetal bovine serum (Gibco, ThermoFisher Scientific, USA), 200 units/mL penicillin plus 200 units/mL streptomycin at 37° C. with 5% CO2.
Cells were seeded in 24-well plates with a density of 1.5×10^5 cells per well and incubated under 37° C., 5% CO2. After 18 h of incubation, media were replaced to MEM with 2% FBS and FAM-labeled ligands were added with final concentrations of 1.6, 8, 40 or 200 nM. After 24 h of incubation, cells were washed twice with 1×PBS and analyzed by LSRFortessa (BD Biosciences, NJ, USA). The binding efficiency was evaluated by the proportion of FAM positive cells.
HepG2 cell was treated by 14 cyclic peptide-tri-GalNAc ligand variants with serial diluted concentration of 1.6, 8, 40 or 200 nM. Commercialized tri-GalNAc used in Givosirna was used as positive control and cyclic peptide w/o tri-GalNAc was negative control. […] Equilibrium dissociation constant (kd) for 5-FAM-CPMB-0013 (ID013), 5-FAM-CPMB-0023 (ID023), 5-FAM-CPMB-0035 (ID035) and commercialized tri-GalNAC were 7.0, 8.6, 5.7 and 18 nM, respectively.

Row | Substance | Efficiency (%) of cellular uptake (percentage of ligand-bound HepG2 cells) (1.6 nM ligand) [%] | Efficiency (%) of cellular uptake (percentage of ligand-bound HepG2 cells) (8 nM ligand) [%] | Efficiency (%) of cellular uptake (percentage of ligand-bound HepG2 cells) (40 nM ligand) [%] | Efficiency (%) of cellular uptake (percentage of ligand-bound HepG2 cells) (200 nM ligand) [%]
1 | 5-FAM-CPMB-0011: CPS-001 cyclic peptide scaffold, Gal-1 GalNAc linker, 5-FAM label; FIG. 14A (KEKGKG; cyclised or stapled) | 3.0 | 20.1 | 67.7 | 94.2
2 | 5-FAM-CPMB-0012: CPS-001 cyclic peptide scaffold, Gal-2 GalNAc linker, 5-FAM label; FIG. 14B (KEKGKG; not fully specified; cyclised or stapled) | 1.2 | 19.6 | 74.2 | 95.9
3 | 5-FAM-CPMB-0014: CPS-001 cyclic peptide scaffold, Gal-4 GalNAc linker, 5-FAM label; FIG. 14D (KEKGKG; cyclised or stapled) | 2.3 | 24.4 | 71.0 | 96.5
4 | 5-FAM-CPMB-0015: CPS-001 cyclic peptide scaffold, Gal-5 GalNAc linker, 5-FAM label; FIG. 14E (KEKGKG; cyclised or stapled) | 16.3 | 36.3 | 89.6 | 99
5 | 5-FAM-CPMB-0021: CPS-002 cyclic peptide scaffold, Gal-1 GalNAc linker, 5-FAM label; FIG. 14F (KEKGKG; D-residues; cyclised or stapled) | 6.8 | 46.1 | 88.7 | 98.8
6 | 5-FAM-CPMB-0025: CPS-002 cyclic peptide scaffold, Gal-5 GalNAc linker, 5-FAM label; FIG. 14H (KEKGKG; D-residues; cyclised or stapled) | 1.6 | 30 | 83.1 | 98.2
7 | 5-FAM-CPMB-0031-Ac: negative control, cyclic peptide w/o tri-GalNAc; CPS-003, Gal-1; FIG. 14R (KEKGKG; D-residues; cyclised or stapled) [reference compound] | 0.1 | 0.1 | 0.2 | 0.4
8 | 5-FAM-CPMB-0031: CPS-003 cyclic peptide scaffold, Gal-1 GalNAc linker, 5-FAM label; FIG. 14I (KEKGKG; D-residues; cyclised or stapled) | 6.0 | 44.2 | 87.8 | 98.6
9 | 5-FAM-CPMB-0033: CPS-003 cyclic peptide scaffold, Gal-3 GalNAc linker, 5-FAM label; FIG. 14J (KEKGKG; D-residues; cyclised or stapled) | 5.3 | 34.5 | 82.9 | 98.2
10 | 5-FAM-CPMB-0034: CPS-003 cyclic peptide scaffold, Gal-4 GalNAc linker, 5-FAM label; FIG. 14K (KEKGKG; D-residues; cyclised or stapled) | 2.0 | 25.6 | 73.6 | 95.6
